Experimental data as given in patent US20260193180A1, “AUTOPHAGY INDUCING COMPOUNDS AND USES THEREOF” (SAMSARA THERAPEUTICS INC., priority 2022, published 2026).
Where a name gives a salt, the structure may show the parent alone.

System: Human osteosarcoma U2OS cells
Experiment: Acidic vesicle formation (lysosome/autolysosome staining, LysoView 633 / LysoTracker Deep Red), stimulation of autophagy
Type: cell-based
Details: 24 hours; for activation at 10 µM: read-out: increase in acidic vesicle formation over the DMSO-treated control; for activation at 0.8 µM: read-out: Activity (percentage increase in acidic vesicle formation over the DMSO-treated control)
Protocol: Lysosomes play a fundamental role in the autophagic pathway by fusing with autophagosomes and creating ‘autolysosomes’ in order to digest their contents. Stimulation of lysosome and autolysosome formation by a compound is indicative of a stimulation of autophagy. The ability of compounds to stimulate lysosome and autolysosome formation, and thus autophagy, in live cells was assessed via fluorescent microscopy using various fluorescent stains for labelling and tracking acidic organelles (including lysosomes and autolysosomes) such as: LysoView™ 650 (70059 and 70059-T, Biotium), LysoView™633 (70058 and 70058-T, Biotium) and LysoTracker™ Deep Red (L12492, ThermoFisher Scientific). The cellular phenotype was quantitatively assessed for the induction of acidic vesicle formation and compared to a non-treated control, thus providing a measure of the ability of the compound under investigation to stimulate autophagy.
Representative procedure using LysoView™633 dye or LysoTracker™ Deep Red dye: Human osteosarcoma U2OS cells (40,000 cells/well) were seeded in a 24 well glass bottom plate (Sensoplate, Greiner Bio-One) and were incubated overnight in a humidified atmosphere at 37° C. and 5% CO2. Cells were grown in DMEM (Gibco) supplemented with 10% Fetal Bovine Serum (FBS) and 100 units/ml penicillin and 100 μg/ml streptomycin (Invitrogen). After the attachment period, cells were treated with different compounds of interest (at various concentrations in DMSO) or DMSO (non-treated control) in cell culture medium and were incubated for 24 hours. Compound-containing medium was removed and cells were incubated with pre-warmed cell culture medium containing 1× LysoView™ 633 (70058 and 70058-T, Biotium) or 50 nM LysoTracker™ Deep Red (L12492, ThermoFisher Scientific) for 45 minutes at 37° C. Finally, cell nuclei were stained for 10 minutes using Hoechst 33342 (1 μg/mL) and then the medium was replaced with fresh medium. The 24 well plate was then fitted into a heated stage on the microscope and cells maintained at 37° C. Images were captured using appropriate filter set for Cy5 and DAPI detection with the EVOS M7000 Microscope (ThermoFisher Scientific). The cellular phenotype was visually assessed for the induction of acidic vesicle formation relative to the non-treated control; multiple images were acquired and analysed using ImageJ or Cell Profiler.

`NC[C@H]1CCN(Cc2cc(Cl)ccc2OCCO)C1` [Compound 24, (R)-2-(2-((3-(aminomethyl)pyrrolidin-1-yl)methyl)-4-chlorophenoxy)ethan-1-ol hydrochloride] was tested. Which activation at 10 µM did it give?
Its activation at 10 µM is no less than 25%.

What does the source list for `CCOc1ccc(Cl)cc1CN1CC[C@H](CN)C1` [Compound 56, (R)-(1-(5-chloro-2-ethoxybenzyl)pyrrolidin-3-yl)methanamine hydrochloride]?
activation at 0.8 µM: > 100%; activation at 10 µM: ≥ 25%

How did the activation at 10 µM turn out when `CCOc1ccc(Cl)c(Cl)c1CCN1CC[C@@H](CN)C1` [Compound 34, (S)-(1-(2,3-dichloro-6-ethoxyphenethyl)pyrrolidin-3-yl)methanamine hydrochloride] was run?
Its activation at 10 µM is no less than 25%.

Which results are given for `CCCCOc1ccc(Cl)cc1CN1CC[C@H](CN)C1` [Compound 26, (R)-(1-(2-butoxy-5-chlorobenzyl)pyrrolidin-3-yl)methanamine hydrochloride]?
activation at 0.8 µM: > 100%; activation at 10 µM: ≥ 25%

For `CCOc1ccc(Cl)cc1CN1CCNCC1` [Compound 40, 1-(5-chloro-2-ethoxybenzyl)piperazine hydrochloride], which activation at 0.8 µM is on record?
Its activation at 0.8 µM is 10 to 30%.

What about the activation at 10 µM of the same compound?
Its activation at 10 µM is no less than 25%.

For `CCCOc1ccc(Cl)cc1CCN1CC[C@@H](CN)C1` [Compound 48, (S)-(1-(5-chloro-2-propoxyphenethyl)pyrrolidin-3-yl)methanamine hydrochloride], which activation at 0.8 µM is on record?
Its activation at 0.8 µM is 10 to 30%.

And the activation at 10 µM?
The activation at 10 µM was no less than 25%.

How did the activation at 10 µM turn out when `CCOc1ccc(Cl)cc1CN1CC[C@@H](CNC)C1` [Compound 51, (S)-1-(1-(5-chloro-2-ethoxybenzyl)pyrrolidin-3-yl)-N-methylmethanamine] was run?
Its activation at 10 µM is no less than 25%.

Which activation at 0.8 µM does the source give for `CCOc1ccc(C(F)(F)F)cc1CCN1CC[C@@H](CN)C1` [Compound 42, (S)-(1-(2-ethoxy-5-(trifluoromethyl)phenethyl)pyrrolidin-3-yl)methanamine hydrochloride] here?
Its activation at 0.8 µM is 50 to 100%.

What about the activation at 10 µM of the same compound?
The activation at 10 µM was no less than 25%.

What does the source list for `CCOc1ccc(Cl)cc1CN1CCC[C@@H](CN)C1` [Compound 7, (S)-(1-(5-chloro-2-ethoxybenzyl)piperidin-3-yl)methanamine hydrochloride]?
activation at 0.8 µM: 30 to 50%; activation at 10 µM: ≥ 25%

`CCOc1ccc(Cl)cc1CN1CC[C@H](N)C1` [Compound 69, (S)-1-(5-chloro-2-ethoxybenzyl)pyrrolidin-3-amine hydrochloride] was tested. Which activation at 10 µM did it give?
Its activation at 10 µM is no less than 25%.

For `CCOc1ccc(Cl)cc1CCN1CCO[C@@H](CN)C1` [Compound 63, (S)-(4-(5-chloro-2-ethoxyphenethyl)morpholin-2-yl)methanamine hydrochloride], which activation at 10 µM is on record?
Its activation at 10 µM is no less than 25%.

Which activation at 10 µM does the source give for `CCOc1ccc(Cl)cc1CN1CCC[C@@H]1CN` [Compound 14, (R)-(1-(5-chloro-2-ethoxybenzyl)pyrrolidin-2-yl)methanamine hydrochloride] here?
The activation at 10 µM was no less than 25%.

How did the activation at 10 µM turn out when `CCOc1cc(F)c(F)cc1CN1CC[C@H](CN)C1` [Compound 21, (R)-(1-(2-ethoxy-4,5-difluorobenzyl)pyrrolidin-3-yl)methanamine hydrochloride] was run?
Its activation at 10 µM is no less than 25%.

`CCOc1ccc(Cl)cc1CN1CC[C@@H](CN(C)C)C1` [Compound 50, (S)-1-(1-(5-chloro-2-ethoxybenzyl)pyrrolidin-3-yl)-N,N-dimethylmethanamine] was tested. Which activation at 0.8 µM did it give?
Its activation at 0.8 µM is 10 to 30%.

And the activation at 10 µM?
The activation at 10 µM was no less than 25%.

For `CCCOc1ccc(Cl)cc1CN1CC[C@@H](CN)C1` [Compound 3, (S)-(1-(5-chloro-2-propoxybenzyl)pyrrolidin-3-yl)methanamine hydrochloride], which activation at 0.8 µM is on record?
Its activation at 0.8 µM is 30 to 50%.

What about the activation at 10 µM of the same compound?
The activation at 10 µM was no less than 25%.

Which results are given for `CCOc1ccc(C(F)(F)F)cc1CN1CCN[C@H](C)C1` [Compound 36, (R)-1-(2-ethoxy-5-(trifluoromethyl)benzyl)-3-methylpiperazine hydrochloride]?
activation at 0.8 µM: 10 to 30%; activation at 10 µM: ≥ 25%

Which activation at 10 µM does the source give for `CCOc1ccc(Cl)cc1CN1CCC[C@H]1CN` [Compound 13, (S)-(1-(5-chloro-2-ethoxybenzyl)pyrrolidin-2-yl)methanamine hydrochloride] here?
Its activation at 10 µM is no less than 25%.

For `CCOc1ccc(CN2CC[C@@H](CN)C2)c(F)c1Cl` [Compound 57, (S)-(1-(3-chloro-4-ethoxy-2-fluorobenzyl)pyrrolidin-3-yl)methanamine hydrochloride], which activation at 10 µM is on record?
The activation at 10 µM was no less than 25%.

How did the activation at 10 µM turn out when `N#Cc1ccc(OCC2CC2)c(CCN2CC[C@@H](CN)C2)c1` [Compound 66, (S)-3-(2-(3-(aminomethyl)pyrrolidin-1-yl)ethyl)-4-(cyclopropylmethoxy)benzonitrile hydrochloride] was run?
Its activation at 10 µM is no less than 25%.

With `NC[C@@H]1CCCN(Cc2cc(Cl)ccc2OCC2CC2)C1` [Compound 8, (S)-(1-(5-chloro-2-(cyclopropylmethoxy)benzyl)piperidin-3-yl)methanamine hydrochloride] as the compound, how does the activation at 0.8 µM read?
The activation at 0.8 µM was 10 to 30%.

And the activation at 10 µM?
Its activation at 10 µM is no less than 25%.

`CCOc1cc(Cl)c(Cl)cc1CCN1CC[C@@H](CN)C1` [Compound 35, (S)-(1-(4,5-dichloro-2-ethoxyphenethyl)pyrrolidin-3-yl)methanamine hydrochloride] was tested. Which activation at 10 µM did it give?
Its activation at 10 µM is no less than 25%.

`NC[C@@H]1CCN(CCc2cc(Cl)cc3c2OCO3)C1` [Compound 33, (S)-(1-(2-(6-chlorobenzo[d][1,3]dioxol-4-yl)ethyl)pyrrolidin-3-yl)methanamine hydrochloride] was tested. Which activation at 10 µM did it give?
Its activation at 10 µM is no less than 25%.

How did the activation at 0.8 µM turn out when `CCOc1cc(Cl)c(Cl)cc1CN1CC[C@@H](CN)C1` [Compound 5, (S)-(1-(4,5-dichloro-2-ethoxybenzyl)pyrrolidin-3-yl)methanamine hydrochloride] was run?
The activation at 0.8 µM was 30 to 50%.

What about the activation at 10 µM of the same compound?
The activation at 10 µM was no less than 25%.

With `CC(C)Oc1ccc(Cl)cc1CN1CC[C@@H](CN)C1` [Compound 53, (S)-(1-(5-chloro-2-isopropoxybenzyl)pyrrolidin-3-yl)methanamine hydrochloride] as the compound, how does the activation at 10 µM read?
The activation at 10 µM was no less than 25%.

For `CCCCOc1ccc(Cl)cc1CN1CC[C@@H](CN)C1` [Compound 27, (S)-(1-(2-butoxy-5-chlorobenzyl)pyrrolidin-3-yl)methanamine hydrochloride], which activation at 0.8 µM is on record?
The activation at 0.8 µM was greater than 100%.

What about the activation at 10 µM of the same compound?
The activation at 10 µM was no less than 25%.
